{
  "source": "patent US20240197666A1",
  "about": "“DITERPENOID COMPOUNDS THAT ACT ON PROTEIN KINASE C (PKC)” (K-Gen Therapeutics, Inc., priority 2021, published 2024)",
  "key": {"A549 cell line": {"system": "A549 cell line", "test": "Proliferation of A549 (CellTiter Glo)", "format": "cell-based", "conditions": "read-out: IC50 μM (A549 Cell Line)", "description": "(§1) The diterpenoid compounds were tested in A549, a non-small cell lung cancer cell line harboring a K-Ras activating mutation. Briefly, A549 cells at a density of 1,000 cells/well were seeded in 96-well plates and incubated at 37° C. for 24 hours. A series of different concentrations of compound stocks (500×) were prepared by 3-fold serial dilution in DMSO. These compounds were further diluted in culture media and then added to cells so that the final DMSO concentration was not exceeding 0.25%. After 96 hours of incubation, 50 μL of CellTiter Glo reagent (Promega) was added to each well and luminescence was measured after 10 minutes using EnVision (PerkinElmer). Luminescence from cells treated with DMSO alone was set as Max and % of inhibition was calculated as follows: Inhibition %=(Max-Sample value)/Max×100. Data was analyzed using XL-fit software (ID Business Solutions Ltd.) and IC50, relative IC50, and % of top inhibition was calculated. Some of the compounds in this disclosure were very potent in blocking proliferation of A549 lung cancer cells at low nM range. In addition, potency of inhibiting A549 proliferation correlated well with its binding affinity to PKCs for this series of compounds. In other words, higher affinity binders had stronger inhibitory effects on A549 proliferation. This further support the notion that activation, rather than inhibition, of certain PKC isoforms is required to block proliferation of cancer cells, some of which may harbor K-Ras mutations. This is in sharp contrast to previous literature and common belief that inhibition of PKC is necessary to block cancer cell growth (Kang, 2014, New Journal of Science, 2014:1-36). Data presented here is in agreement with recent findings that many loss-of-function but not gain-of-function mutations of PKC isoforms have been identified in many human cancers (Antal et al., 2015, Cell, 160:489-502)."}, "Mino (Lymphoma)": {"system": "Mino (Lymphoma)", "test": "Proliferation of Mino", "format": "cell-based", "conditions": "for IC50: Homo sapiens, MINO, read-out: IC50 Mino (Lymphoma)", "description": "as §1\n(§2) The compounds in this disclosure were tested for their potency in blocking proliferation of a few other cancer cells lines, including K-Ras mutant pancreatic cell lines Panc2.13 and KP-4, leukemia cell line HL-60, and lymphoma cell lines Namalwa and Mino. Similar procedures as in Example 67 were followed. Initial cell numbers seeded in 96-well plates were different for different cell lines: 3000 cells/well for Panc2.13; 800-1000 cells/well for KP-4; 5000 cells/well for HL-60; 5000-10000 cells/well for Namalwa and Mino. A ratio of (IC50 of K101)/(IC50 of compound) (data in parenthesis in Table 5) was used to normalize the compound potency from different assay batches to a common comparator K101."}, "Namalwa (Lymphoma)": {"system": "Namalwa (Lymphoma)", "test": "Proliferation of Namalwa", "format": "cell-based", "conditions": "for IC50: read-out: IC50 Namalwa (Lymphoma)", "description": "as §1, §2"}, "HL-60 (Leukemia)": {"system": "HL-60 (Leukemia)", "test": "Proliferation of HL-60", "format": "cell-based", "conditions": "for IC50: Homo sapiens, HL-60, read-out: IC50 HL-60 (Leukemia)", "description": "as §1, §2"}, "[1]": {"system": "NFκB-driven transcription in HeLa-NFκB luciferase reporter cell line", "test": "NFκB luciferase reporter assay", "conditions": "Homo sapiens, HeLa, 16 h, read-out: NFκB-luc HeLa cells EC50 (μM)", "procedure": "A HeLa-NFκB luciferase reporter cell line (Wuxi Biology) was used to assess a group of PKC activator compounds for their ability to activate NFκB-driven transcription. […] One set of cells was assayed for luciferase activity (Promega, Cat #E1500) and the other set was assayed to determine the number of viable cells (for cell number normalization) using CellTiter-Glo (CTG) kit (Promega, Cat #G7570) according to manufacture's procedures. Normalized data (luciferase value/CTG value) were analyzed using GraphPad Prism5 to calculate EC50 for each compound (see Table 8).\nTo assess if activation of PKC is required for these compounds to activate NFκB, several PKC inhibitors including broad-spectrum and conventional PKC inhibitors were tested. In the assay described above, PKC inhibitors were added at the same time as the PKC activator compounds."}, "C1b domain of human PKCδ": {"target": "T1, C1b domain of human PKCδ (Homo sapiens, UniProt Q05655)", "T1 construct": "Genes encoding C1b domains of human PKCα, δ, ε, θ, and PKD1 (PKCμ) were synthesized; made in house; host or cells: E. coli BL21(DE3)", "T1 sequence (Q05655 230-280 limits assumed)": "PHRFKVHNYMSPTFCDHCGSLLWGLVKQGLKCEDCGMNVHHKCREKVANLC", "test": "biochemical", "format": "binding", "conditions": "3H-PDBu competition", "description": "Compounds described in this disclosure were tested for binding affinity to C1b domain of PKC isoforms. Compound binding affinity to C1b domain of PKC isoforms was derived from competitive binding assay using radioactive tracer ^3H-PDBu and recombinant GST-C1b or full-length of human PKC proteins based on modified procedures from Methods in Molecular Biology, vol.\nGenes encoding C1b domains of human PKCα, δ, ε, θ, and PKD1 (PKCμ) were synthesized and inserted into pGEX-2TK or pGEX-4T1 vectors for expression and production of GST-C1b proteins in E. coli BL21(DE3) via IPTG induction. The target proteins were purified by glutathione sepharose 4B and followed by ion exchange chromatography if needed to achieve purity >70%. Aliquots of the purified proteins were stored at −80 degree for binding assay (storage buffer: 20 mM Tris pH 8.0, 200 mM NaCl, 10% glycerol, 1 mM DTT).\nThe plate was incubated at 37° C. on a shaker at 300 rpm for 10 minutes and then put on ice for 20 minutes. […] The bottom of the filter plate was sealed and 50 μL of MicroScint-20 (PerkinElmer) cocktail was added to each well. ^3H-PDBu trapped in each well was counted using PerkinElmer MicroBeta2 Reader. Data were analyzed using GraphPad Prism5 with the model “log(inhibitor) vs. response-variable slope” to fit the IC50, and then IC50 was transformed to Ki using Cheng-Prusoff equation: Ki=IC50/(1+added radio ligand/Kd). Kd is the binding affinity of each protein preparation to ^3H-PDBu, determined experimentally."}},
  "note": "Like-named read-outs stand apart in the source and are kept apart here.",
  "data": [
    {"compound": "CC1=C[C@H]2[C@@]3(O)[C@H](C)C[C@]4(OC(=O)CCc5ccc(C(F)(F)F)cc5)[C@H]([C@@H]3C=C(CO)C[C@]2(O)C1=O)C4(C)C", "values": [
      {"measurement": "IC50", "setting": "A549 cell line; Homo sapiens, A549, 96 h", "value": "0.01 to 0.03", "unit": "µM"},
      {"measurement": "ratio (IC50 of K101)/(IC50 of compound) Mino", "setting": "Mino (Lymphoma)", "value": 75},
      {"measurement": "IC50", "setting": "Mino (Lymphoma)", "value": "< 1", "unit": "nM"},
      {"measurement": "ratio (IC50 of K101)/(IC50 of compound) Namalwa", "setting": "Namalwa (Lymphoma)", "value": 13.8},
      {"measurement": "IC50", "setting": "Namalwa (Lymphoma)", "value": "1 to 10", "unit": "nM"},
      {"measurement": "ratio (IC50 of K101)/(IC50 of compound) HL-60", "setting": "HL-60 (Leukemia)", "value": 72},
      {"measurement": "IC50", "setting": "HL-60 (Leukemia)", "value": "1 to 10", "unit": "nM"},
      {"measurement": "EC50", "setting": "[1]", "value": "0.01 to 0.03", "unit": "µM"}
    ]},
    {"compound": "CC1=C[C@H]2[C@@]3(O)[C@H](C)C[C@]4(OC(=O)C5CC6(CNC6)C5)[C@H]([C@@H]3C=C(CO)C[C@]2(O)C1=O)C4(C)C", "values": [
      {"measurement": "IC50", "setting": "A549 cell line; Homo sapiens, A549, 96 h", "value": "> 30", "unit": "µM"}
    ]},
    {"compound": "CCCC[C@H](N)C(=O)O[C@@]12C[C@@H](C)[C@@]3(O)[C@@H](C=C(CO)C[C@]4(O)C(=O)C(C)=C[C@@H]34)[C@@H]1C2(C)C", "values": [
      {"measurement": "IC50", "setting": "A549 cell line; Homo sapiens, A549, 96 h", "value": "0.6 to 1", "unit": "µM"},
      {"measurement": "Ki", "setting": "C1b domain of human PKCδ", "value": "10 to 30", "unit": "nM"}
    ]},
    {"compound": "CC1=C[C@H]2[C@@]3(O)[C@H](C)C[C@]4(OC(=O)CCc5c[nH]c6ncccc56)[C@H]([C@@H]3C=C(CO)C[C@]2(O)C1=O)C4(C)C", "values": [
      {"measurement": "IC50", "setting": "A549 cell line; Homo sapiens, A549, 96 h", "value": "2 to 5", "unit": "µM"}
    ]},
    {"compound": "CC1=C[C@H]2[C@@]3(O)[C@H](C)C[C@]4(OC(=O)CCc5cnn(C)c5)[C@H]([C@@H]3C=C(CO)C[C@]2(O)C1=O)C4(C)C", "values": [
      {"measurement": "IC50", "setting": "A549 cell line; Homo sapiens, A549, 96 h", "value": "2 to 5", "unit": "µM"}
    ]},
    {"compound": "CC1=C[C@H]2[C@@]3(O)[C@H](C)C[C@]4(OC(=O)CCCc5ccccc5)[C@H]([C@@H]3C=C(CO)C[C@]2(O)C1=O)C4(C)C", "values": [
      {"measurement": "IC50", "setting": "A549 cell line; Homo sapiens, A549, 96 h", "value": "0.01 to 0.03", "unit": "µM"},
      {"measurement": "ratio (IC50 of K101)/(IC50 of compound) Mino", "setting": "Mino (Lymphoma)", "value": 37.5},
      {"measurement": "IC50", "setting": "Mino (Lymphoma)", "value": "1 to 10", "unit": "nM"},
      {"measurement": "ratio (IC50 of K101)/(IC50 of compound) Namalwa", "setting": "Namalwa (Lymphoma)", "value": 8.63},
      {"measurement": "IC50", "setting": "Namalwa (Lymphoma)", "value": "1 to 10", "unit": "nM"},
      {"measurement": "ratio (IC50 of K101)/(IC50 of compound) HL-60", "setting": "HL-60 (Leukemia)", "value": 32.7},
      {"measurement": "IC50", "setting": "HL-60 (Leukemia)", "value": "10 to 30", "unit": "nM"},
      {"measurement": "EC50", "setting": "[1]", "value": "0.01 to 0.03", "unit": "µM"}
    ]},
    {"compound": "CC1=C[C@H]2[C@@]3(O)[C@H](C)C[C@]4(OC(=O)[C@@H](N)CC5CCC5)[C@H]([C@@H]3C=C(CO)C[C@]2(O)C1=O)C4(C)C", "values": [
      {"measurement": "IC50", "setting": "A549 cell line; Homo sapiens, A549, 96 h", "value": "1 to 2", "unit": "µM"}
    ]},
    {"compound": "CC1=C[C@H]2[C@@]3(O)[C@H](C)C[C@]4(OC(=O)[C@@H](N)CCS(C)(=O)=O)[C@H]([C@@H]3C=C(CO)C[C@]2(O)C1=O)C4(C)C", "values": [
      {"measurement": "IC50", "setting": "A549 cell line; Homo sapiens, A549, 96 h", "value": "> 30", "unit": "µM"}
    ]},
    {"compound": "CC1=C[C@H]2[C@@]3(O)[C@H](C)C[C@]4(OC(=O)[C@@H](N)CC(C)(C)C)[C@H]([C@@H]3C=C(CO)C[C@]2(O)C1=O)C4(C)C", "values": [
      {"measurement": "IC50", "setting": "A549 cell line; Homo sapiens, A549, 96 h", "value": "0.2 to 0.6", "unit": "µM"},
      {"measurement": "Ki", "setting": "C1b domain of human PKCδ", "value": "10 to 30", "unit": "nM"}
    ]},
    {"compound": "CC1=C[C@H]2[C@@]3(O)[C@H](C)C[C@]4(OC(=O)[C@@H](N)C5Cc6ccccc6C5)[C@H]([C@@H]3C=C(CCl)C[C@]2(O)C1=O)C4(C)C", "values": [
      {"measurement": "IC50", "setting": "A549 cell line; 96 hours, CellTiter Glo", "value": "0.06 to 0.1", "unit": "µM"}
    ]},
    {"compound": "CC1=C[C@H]2[C@@]3(O)[C@H](C)C[C@]4(OC(=O)[C@@H](N)CC5CC5)[C@H]([C@@H]3C=C(CO)C[C@]2(O)C1=O)C4(C)C", "values": [
      {"measurement": "IC50", "setting": "A549 cell line; Homo sapiens, A549, 96 h", "value": "2 to 5", "unit": "µM"},
      {"measurement": "Ki", "setting": "C1b domain of human PKCδ", "value": "60 to 100", "unit": "nM"}
    ]},
    {"compound": "CC1=C[C@H]2[C@@]3(O)[C@H](C)C[C@]4(OC(=O)[C@@H](N)CC5CCCC5)[C@H]([C@@H]3C=C(CO)C[C@]2(O)C1=O)C4(C)C", "values": [
      {"measurement": "IC50", "setting": "A549 cell line; Homo sapiens, A549, 96 h", "value": "0.1 to 0.2", "unit": "µM"}
    ]},
    {"compound": "CC1=C[C@H]2[C@@]3(O)[C@H](C)C[C@]4(OC(=O)CCCCCCCCCCC(=O)O)[C@H]([C@@H]3C=C(CO)C[C@]2(O)C1=O)C4(C)C", "values": [
      {"measurement": "IC50", "setting": "A549 cell line; Homo sapiens, A549, 96 h", "value": "10 to 30", "unit": "µM"}
    ]},
    {"compound": "CC1=C[C@H]2[C@@]3(O)[C@H](C)C[C@]4(OC(=O)[C@H](N)CC5CCCCC5)[C@H]([C@@H]3C=C(CO)C[C@]2(O)C1=O)C4(C)C", "values": [
      {"measurement": "IC50", "setting": "A549 cell line; Homo sapiens, A549, 96 h", "value": "0.2 to 0.6", "unit": "µM"},
      {"measurement": "Ki", "setting": "C1b domain of human PKCδ", "value": "10 to 30", "unit": "nM"}
    ]}
  ]
}
